Test results reported in patent publication US9433659B2, “Enhanced glycemic control using Ad36E4orf1 and AKT1 inhibitor” (priority 2012, dated 2016).

Legend:
Type in all cases: cell-based
[1] = test system: 3T3-L1 cells; assay: Adipogenic differentiation by oil red O staining in inducible E4orf1 stable cell line; conditions: 3T3-L1 cells expressing Ad36 E4orf1 on doxycycline; 0, 1, or 5 M of 2ATD; up to nine days
Method: FIG. 7A-F are photomicrographs of 3T3-L1 cells. […] FIGS. 7D-F show 3T3-L1 cells that express Ad36 E4orf1 when exposed to doxycycline, treated with 0, 1, or 5 M, respectively, of 2ATD—a specific inhibitor of AKT1 signalling.
3T3-L1 cells that express Ad36 E4orf1 when exposed to doxycycline (10) were generated. […] Confluent E4orf1 and pTRE cells were exposed to adipogenic media to induce differentiation. In addition the cells were treated with 0, 1 or 5 M of 2ATD—a specific inhibitor of AKT1 signalling. This media was refreshed every two days for up to nine days. Adipogenic differentiation was verified by oil red O staining (FIGS. 7A-F).

[2] = test system: PPARγ; assay: PPARγ expression by qRT-PCR in E4orf1 and pTRE cells
Method: (§1) Confluent E4orf1 and pTRE cells were exposed to adipogenic media to induce differentiation. In addition the cells were treated with 0 or 5 μM of 2ATD—a specific inhibitor of AKT1 signalling. This media was refreshed every two days for up to nine days. Basal and insulin stimulated 2DG uptake was determined 24 hours post induction in the presence of 1000 ng/ml of doxycycline expression of PPARγ and adiponectin—markers of adipogenesis, by qRT-PCR.

[3] = test system: adiponectin; assay: Adiponectin expression by qRT-PCR in E4orf1 and pTRE cells
Method: as §1

[4] = test system: PPARγ; assay: PPARγ protein abundance in 3T3-L1 adipocytes; conditions: 0, 1 or 5 μM ATD
Method: FIG. 10 is a graph showing ATD inhibits PPARγ protein abundance. 3T3-L1 adipocytes were transfected with a null vector (V5), and exposed to 10 μM TZD, or transfected with a plasmid expressing E4orf1 protein. Both groups were exposed to […] ATD.
(§2) 3T3-L1 adipocytes were transfected with a null vector and exposed to 10 μM TZD, or transfected with a plasmid expressing E4orf1 protein. Both groups were exposed to 0, 1 or 5 μM ATD. […] The glucose uptake in adipocytes was PPARγ-dependent in the presence of TZD, but not when induced by E4orf1. Thus, by down-regulating AKT-1 signaling E4orf1 can be used to enhance glucose uptake by adipocytes, without further increasing lipid accumulation.

[5] = test system: 3T3-L1 adipocytes; assay: Glucose uptake in 3T3-L1 adipocytes exposed to ATD; conditions: null vector, 10 μM TZD; increasing concentration of ATD (0, 1 or 5 μM)
Method: as §2

[6] = test system: E4orf1 and pTRE inducible stable cells; assay: Basal and insulin stimulated glucose (2DG) uptake in presence of 2-ATD
Method: E4orf1 and pTRE inducible stable cells were exposed to adipogenic media to induce differentiation and treated with 0 or 5 μM of 2-ATD. Basal and insulin stimulated 2DG was determined 24 hours after exposure to doxycycline (1000 ng/ml), in presence or absence of insulin (*p<0.05).

[7] = E4orf1 expressing cells, 0 or 5 μM of 2ATD
[8] = effect of E4orf1 expression (doxycycline 1000 ng/ml), qRT-PCR

Molecule	adipogenesis and lipid accumulation (oil red O staining) [1]	PPARγ expression [2, 7]	PPARγ expression ([2]; pTRE cells, 0 or 5 μM of 2ATD)	adiponectin expression [3, 7]	PPARγ protein abundance [4]	glucose uptake [5]	PPARγ expression [2, 8]	adiponectin expression [3, 8]	glucose uptake (2DG) despite 2-ATD treatment ([6]; E4orf1 expressing cells treated with 5 μM of 2-ATD)	glucose uptake (2DG) ([6]; E4orf1 expression compared to pTRE, 24 hours after doxycycline (1000 ng/ml), basal and insulin stimulated)
Nc1nncs1 [2-ATD, 2-Aminothiadiazole]	blocked adipogenesis and lipid accumulation	significantly reduced PPARγ expression	significantly reduced PPARγ expression	significantly reduced	reduced PPARγ protein abundance	significantly reduced glucose uptake	–	–	–	–
E4orf1: Adenovirus-36 E4orf1 protein, SEQ ID NO:2; expressed in 3T3-L1 cells by doxycycline induction or plasmid (protein, listed as Human adenovirus) MAESLYAFIDSPGGIAPVQEGASNRYIFFCPESFHIPPHGVILLHLRVSVLVPTGYQGRFMALNDYHARGILTQSDVIFAGRRHDLSVLLFNHTDRFLYVREGHPVGTLLLERVIFPSVRIATLV	–	–	–	–	–	–	significantly increased the expression of PPARγ and adiponectin	significantly increased the expression of PPARγ and adiponectin	continued to show significantly greater glucose uptake	increased glucose uptake compared to that in pTRE
